In brackets after ≈: the same amount, converted by molar mass. Read-outs that look alike come from different tables or passages of the source.
Key:
[1] = test system: S. aureus ATCC 13709^A, Novobiocin and Rifampicin resistant variant; assay: Antibacterial susceptibility (MIC), NCCLS broth microdilution; assay type: cell-based
Description: (§1) Susceptibility of S. aureus strains to the known antibiotics and synthesized compounds was determined by following the guidelines set by NCCLS (M26-A). Compounds were diluted two-fold serially in DMSO and transferred to cation-adjusted Mueller Hinton broth (CAMHB; Becton Dickinson). 50 μL of compounds diluted in CAMHB was mixed with 100 μL of bacteria diluted in CAMHB in 96-well microtiter plates. The final concentration of micro-organisms in the assay was 5×10^5c.f.u. per mL and the final concentration of DMSO in the assay was 1.25%. Assays were set up in duplicate and incubated at 37° C. for 18 h. The lowest concentration of compound that inhibited visible growth was reported as the minimum inhibitory concentration (MIC).

[2] = test system: S. aureus ATCC 29213; assay: as above; assay type: cell-based; settings: CAMHB, 37° C., 18 h
Description: as §1

[3] = test system: S. aureus ATCC 13709; assay: microbe, parasite or virus in culture; assay type: cell-based; settings: for Minimum inhibitory concentration, S. aureus ATCC 13709: CAMHB, 37° C., 18 h; for Antibacterial activity (in words, from Table 1): S. aureus MIC
Description: as §1

[4] = test system: S. aureus ATCC 13709; assay: microbe, parasite or virus in culture; assay type: cell-based; settings: for Serum dependence of antibacterial activity (in words): MIC with versus without serum
Description: as §1
Susceptibility testing experiments were also carried out in the presence of serum. These experiments were carried out similar to the susceptibility testing with the following modifications. 75 μL of compounds diluted in CAMHB was mixed with 75 μL of bacteria diluted in 100% serum from any given source (commercial pooled mouse serum (MS) and human serum (HS), Equitech-Bio Inc.) or diluted in 8% purified human serum albumin (HSA) (Calbiochem). The final concentration of animal serum in the assay was 50% and the final concentration of purified human serum albumin in the assay was 4%; the concentrations of all other components were identical to those described for susceptibility testing.

[5] = assay type: in vitro ADME; settings: for % Conversion (prodrug converted to parent drug after binding to bone): 24 h incubation, 37° C.
Description: Amounts of parent drug “regenerated” from the phosphonated prodrug were measured as follows. Washed bone powder-bound prodrugs from the above experiment were resuspended in 400 μL PBS+2% DMSO or in 400 μL 50% (v/v in PBS+2% DMSO) human or rat serum. The suspension was incubated overnight at 37° C., centrifuged at 13,000 rpm for 2 min and the supernatant was recovered. The amount of regenerated parent drug in the supernatant was determined by measurements using the microbiological assay that was previously described for the prodrugs themselves. The amount of prodrug was deduced from standard curves of known amounts of parent drug that were used as reference for each experiment. The amount of regenerated drug assessed by this bioassay was corroborated by MIC determination. The percentage of drug regenerated in PBS or serum after the overnight incubation (Table 2) was deduced from the difference between the amount of bound prodrug and the amount of regenerated drug (not shown).

Row | Compound | Minimum inhibitory concentration, S. aureus ATCC 13709^A [1] | Minimum inhibitory concentration, S. aureus ATCC 29213 [2] | Minimum inhibitory concentration, S. aureus ATCC 13709 [3] | Antibacterial activity (in words, from Table 1) [3] | Minimum inhibitory concentration, ATCC 13709 + 50% Human Serum ([4]; 50% Human Serum) | Minimum inhibitory concentration, ATCC 13709 + 50% Mouse Serum ([4]; 50% Mouse Serum) | Minimum inhibitory concentration, ATCC 13709 + 50% Rat Serum [4] | Minimum inhibitory concentration, ATCC 13709 + 50% Human Serum [4] | Serum dependence of antibacterial activity (in words) [4] | Minimum inhibitory concentration, ATCC 13709 + 50% Mouse Serum [4] | Release of parent rifabutin from bone powder-bound prodrug (in words) [5] | % Conversion (prodrug converted to parent drug after binding to bone) ([5]; 50% Heat Inactivated Rat Serum) | % Conversion (prodrug converted to parent drug after binding to bone) ([5]; 50% Rat Serum) | % Conversion (prodrug converted to parent drug after binding to bone) ([5]; PBS)
1 | CO[C@H]1/C=C/O[C@@]2(C)Oc3c(C)c(O)c4c(c3C2=O)C2=NC3(CCN(CC(C)C)CC3)NC2=C(NC(=O)/C(C)=C\C=C\[C@H](C)[C@H](OC(=O)CN(CCCCC(P(=O)(O)O)P(=O)(O)O)CCOC(C)=O)[C@@H](C)[C@@H](O)[C@@H](C)[C@H](OC(C)=O)[C@@H]1C)C4=O [Compound 48b] | >128 µg/mL | 0.5 µg/mL (≈ 0.41 µM) | 0.25 µg/mL (≈ 0.205 µM) | very low MICs whether in the absence or in the presence of serum | 0.5 µg/mL | 0.25 µg/mL | 0.0625 µg/mL | – | – | – | – | – | – | –
2 | CO[C@H]1/C=C/O[C@@]2(C)Oc3c(C)c(O)c4c(c3C2=O)C2=NC3(CCN(CC(C)C)CC3)NC2=C(NC(=O)/C(C)=C\C=C\[C@H](C)[C@H](OC(=O)CN(C)CC(=O)Nc2ccc(CC(P(=O)(O)O)P(=O)(O)O)cc2)[C@@H](C)[C@@H](O)[C@@H](C)[C@H](OC(C)=O)[C@@H]1C)C4=O [Compound 150] | >128 µg/mL | 64 µg/mL (≈ 51.6 µM) | 64 µg/mL (≈ 51.6 µM) | – | – | 128 µg/mL | 16 µg/mL | >128 µg/mL | – | – | – | – | – | –
3 | CCCCOC(=O)NCCN(CCCCC(P(=O)(O)O)P(=O)(O)O)CC(=O)O[C@@H]1[C@@H](C)[C@@H](O)[C@@H](C)[C@H](OC(C)=O)[C@H](C)[C@@H](OC)/C=C/O[C@@]2(C)Oc3c(C)c(O)c4c(c3C2=O)C2=NC3(CCN(CC(C)C)CC3)NC2=C(NC(=O)/C(C)=C\C=C\[C@@H]1C)C4=O [Compound 71] | >128 µg/mL | 8 µg/mL (≈ 6.26 µM) | 4 µg/mL (≈ 3.13 µM) | – | 16 µg/mL | 8 µg/mL | 1 µg/mL | – | significant increase in antibacterial activity in serum | – | – | – | – | –
4 | CO[C@H]1/C=C/O[C@@]2(C)Oc3c(C)c(O)c4c(c3C2=O)C2=NC3(CCN(CC(C)C)CC3)NC2=C(NC(=O)/C(C)=C\C=C\[C@H](C)[C@H](OC(=O)CNC(=O)CCCNC(=O)NC(P(=O)(O)O)P(=O)(O)O)[C@@H](C)[C@@H](O)[C@@H](C)[C@H](OC(C)=O)[C@@H]1C)C4=O.N.N [Compound 155] | >128 µg/mL | 128 µg/mL | 32 µg/mL | near complete loss of activity | 128 µg/mL | – | 8 µg/mL | – | – | >128 µg/mL | – | – | – | –
5 | CCN(CC)CC.CO[C@H]1/C=C/O[C@@]2(C)Oc3c(C)c(O)c4c(c3C2=O)C2=NC3(CCN(CC(C)C)CC3)NC2=C(NC(=O)/C(C)=C\C=C\[C@H](C)[C@H](OC(=O)CNC(=O)Nc2ccc(CC(P(=O)(O)O)P(=O)(O)O)cc2)[C@@H](C)[C@@H](O)[C@@H](C)[C@H](OC(C)=O)[C@@H]1C)C4=O [Compound 142a] | >128 µg/mL | 16 µg/mL | 16 µg/mL | – | 128 µg/mL | 16 µg/mL | 2 µg/mL | – | weak antibacterial activity does not show a serum dependence | – | – | – | – | –
6 | CO[C@H]1/C=C/O[C@@]2(C)Oc3c(C)c(O)c4c(c3C2=O)C2=NC3(CCN(CC(C)C)CC3)N(C(=O)Oc3ccc(NC(=O)CCC(P(=O)(O)O)P(=O)(O)O)cc3)C2=C(NC(=O)/C(C)=C\C=C\[C@H](C)[C@H](O)[C@@H](C)[C@@H](O)[C@@H](C)[C@H](OC(C)=O)[C@@H]1C)C4=O [Compound 28] | >128 µg/mL | 0.5 µg/mL (≈ 0.412 µM) | 0.5 µg/mL (≈ 0.412 µM) | very low MICs whether in the absence or in the presence of serum | 0.25 µg/mL | 2 µg/mL | 0.0625 µg/mL | – | – | – | release significant amounts of the parent rifabutin once bound to bone powder, regardless of the presence of serum | 0.07 ± 0.02% | 0.06 ± 0.01% | 0.06 ± 0.01%
7 | CO[C@H]1/C=C/O[C@@]2(C)Oc3c(C)c(O)c4c(c3C2=O)C2=NC3(CCN(CC(C)C)CC3)NC2=C(NC(=O)/C(C)=C\C=C\[C@H](C)[C@H](OC(=O)CN(C)CCOC(=O)CNC(=O)CCC(P(=O)(O)O)P(=O)(O)O)[C@@H](C)[C@@H](O)[C@@H](C)[C@H](OC(C)=O)[C@@H]1C)C4=O [Compound 42] | >128 µg/mL | 0.25 µg/mL (≈ 0.2 µM) | 0.125 µg/mL (≈ 0.1 µM) | very low MICs whether in the absence or in the presence of serum | 0.0625 µg/mL | 0.125 µg/mL | 0.03125 µg/mL | – | – | – | – | – | – | –
8 | CO[C@H]1/C=C/O[C@@]2(C)Oc3c(C)c(O)c4c(c3C2=O)C2=NC3(CCN(CC(C)C)CC3)NC2=C(NC(=O)/C(C)=C\C=C\[C@H](C)[C@H](OC(=O)CNC(=O)CNC(=O)[C@@H](Cc2ccccc2)NC(=O)CNC(=O)CCC(P(=O)(O)O)P(=O)(O)O)[C@@H](C)[C@@H](O)[C@@H](C)[C@H](OC(C)=O)[C@@H]1C)C4=O.N.N [Compound 79b] | >128 µg/mL | 64 µg/mL | 64 µg/mL | – | 128 µg/mL | 64 µg/mL | 8 µg/mL | – | – | – | – | – | – | –
9 | CCN(CC)CC.CO[C@H]1/C=C/O[C@@]2(C)Oc3c(C)c(O)c4c(c3C2=O)C2=NC3(CCN(CC(C)C)CC3)NC2=C(NC(=O)/C(C)=C\C=C\[C@H](C)[C@H](OC(=O)CN(C)CC(=O)NC(P(=O)(O)O)P(=O)(O)O)[C@@H](C)[C@@H](O)[C@@H](C)[C@H](OC(C)=O)[C@@H]1C)C4=O [Compound 147] | >128 µg/mL | 128 µg/mL | 128 µg/mL | near complete loss of activity | 16 µg/mL | 2 µg/mL | 32 µg/mL | – | – | – | – | – | – | –

— patent US8524691B2, “Phosphonated rifamycins and uses thereof for the prevention and treatment of bone and joint infections” (The Medicines Company, priority 2008, dated 2013)
